{
  "source": "patent US20250034520A1",
  "about": "“INCREASING DEVELOPMENTAL POTENTIAL OF HUMAN PREIMPLANTATION EMBRYOS BY REDUCING GENETIC INSTABILITY, ANEUPLOIDIES AND CHROMOSOMAL MOSAICISM” (THE TRUSTEES OF COLUMBIA UNIVERSITY IN THE CITY OF NEW YORK, priority 2022, published 2025)",
  "type_in_all_cases": "cell-based",
  "key": {"[1]": {"tested_on": "mouse 1-cell embryos", "experiment": "timing of mitotic entry in mouse 1-cell embryos", "settings": "application in G2 phase, depending on the time point of application", "experimental": "(§1) Embryos, mouse and human, were cultured in Global Total (Life-Global) for the duration of the experiments and with added compounds as outlined below. Incubation in RNA polymerase inhibitors triptolide (1 mM) or alpha amanitin (20 mg/ml) was performed from the 2PN stage (day1) to day3 of human development. Incubation in aphidicolin was performed at 2 mM. […] Mirin was used at a concentration of 50 mM. Olaparib was used to inhibit PARP at a concentration of 10 mM. All experiments were conducted during incubation at 37° C. with 5% CO2 and 19-20% O2. Chemical stock solutions were prepared in DMSO at concentrations at least 1000× higher than the final concentration.\n(§2) Mouse oocytes were activated at 1-6 hours post retrieval using 2 mM ionomycin (Sigma Aldrich) in Global Total medium for 5 minutes at 37° C. followed by culture in 10 mM puromycin and 5 mg/ml cytochalasin B for 3 hours, then cytochalasinB only for 2 hours and 10 minutes to prevent second polar body extrusion."}, "[2]": {"tested_on": "human zygotes and parthenotes", "experiment": "timing of mitotic entry in human zygotes and parthenotes", "settings": "for mitotic entry: human parthenotes", "experimental": "as §1\nArtificial activation of human MII oocytes was performed using two pulses of 2.7 kV/cm at 50 ms using ECFG21 (Nepagene) in fusion buffer consisting of 0.25 M d-sorbitol buffer containing 0.1 mM calcium acetate, 0.5 mM magnesium acetate, 0.5 mM HEPES, and 1 mg ml^−1 fatty-acid-free BSA as previously described (Tachibana et al., 2013). Thereafter, oocytes were incubated for 3.5-4 h in 10 mg/ml puromycin, followed by a wash step and following culture in Global total."}, "[3]": {"tested_on": "mouse zygotes", "experiment": "DNA damage foci immunostaining in mouse zygotes/embryos", "experimental": "as §1, §2\nFollowing the experimental exposures, mouse and human embryos were fixed in 2% paraformaldehyde (PFA) and 0.25% Triton X-100 in PBS for 10 minutes at room temperature, serially washed in phosphate-buffered solution (PBS) at room temperature, then stored in PBS at 4° C. until staining and imaging. Embryos were placed in 10-20 ml droplets of primary antibody solution within plastic tissue culture dishes covered with mineral oil for 1 hour at room temperature, serially washed (×2) in PBS containing 0.01% Triton X-100 to prevent embryos sticking to oil, then transferred to 10-20 ml secondary antibody solution and Hoechst (dilution 1:500) for 30 minutes. Embryos were then serially washed (×2) and placed in 5 ml droplets of PBS with 0.5% serum albumin in uncoated glass bottom dishes (Mattek) covered with embryo culture oil for imaging. The following primary antibodies were used across experiments as described above: Oct-4, γH2AX, RPA32, RPA32 S4/S8, RPA32 S33, 53BP1, RAD51, Centromere, and phospho-CHK1. Phospho-specific antibodies were quality controlled through ATR dependence of foci formation in mouse zygotes, and for γH2AX also in human zygotes. […] The appropriate secondary antibodies conjugated with Alexa Fluor 488, Alexa Fluor 555, CF 568, or Alexa Fluor 647 were diluted at 1:500-1:1000. Ethynyl deoxyuridine (EdU) labeling of zygotes and embryos was performed using the labeling kit (Thermo Fisher Scientific) as described by the manufacturer. 10 mM EdU was added to culture medium for 1 h at the indicated time points, and cells were harvested and fixed thereafter. 5-ethynyl uridine (EU) labeling was performed by incubating day3 cleavage stage embryos for 4 hours in Global total containing 0.2 mM EU.\nEmbryos were imaged with confocal microscopy using a Zeiss LSM (LSM 710) at a magnification of 63× and the Zeiss Zen software. Images were obtained using 488-, 543- and 633-nm lasers and bright-field microscopy. The number of confocal sections was adjusted to capture the entire nucleus or the entire embryo according to the experimental design as described above. Cell numbers and staining foci numbers were counted manually. Nuclei were identified by the presence of Hoechst33342. Foci were identified if at least 3× greater intensity than nuclear average, spherical in appearance, and overlapping with Hoechst33342 staining. Inner cell masses were identified by the presence of Oct4 within a blastocyst embryo. Active DNA replication was identified by the presence of EdU. DNA damage was identified by the detection of γH2AX and RPA foci within the nucleus. Mechanisms of DNA repair were identified through the detection of RPA S4/S8, RPA S33, Rad51 and 53BP1 foci within the nucleus."}, "[4]": {"tested_on": "human embryos", "experiment": "nucleation and development of human embryos", "from_the_text": "Cryopreserved human cleavage-stage and blastocyst embryos and unfertilized oocytes were anonymously donated from individuals and couples who provided consent for use in research. Embryos were of good quality and had been cryopreserved for potential clinical use but were then no longer needed and donated for research. The cause of treatment is not disclosed. Range of maternal age of donated embryos is between 27-43. Embryos of both sexes were used, as provided by the unbiased fertilization of oocytes with sperm carrying either a Y or X chromosome. Cleavage stage embryos were thawed using the one-step thaw protocol using Global total with HEPES. Blastocyst stage embryos were thawed using the Quinn's Advantage thaw kit, then exposed to experimental conditions as outlined below. Vitrified embryos were thawed with the ECMPC warming solution set. Embryo culture was performed in Global Total. All experiments were conducted during incubation at 37° C. with 5% CO2 and 20% 02.\nas §1\nFollowing the experimental exposures, mouse and human embryos were fixed in 2% paraformaldehyde (PFA) and 0.25% Triton X-100 in PBS for 10 minutes at room temperature, serially washed in phosphate-buffered solution (PBS) at room temperature, then stored in PBS at 4° C. until staining and imaging. Embryos were placed in 10-20 ml droplets of primary antibody solution within plastic tissue culture dishes covered with mineral oil for 1 hour at room temperature, serially washed (×2) in PBS containing 0.01% Triton X-100 to prevent embryos sticking to oil, then transferred to 10-20 ml secondary antibody solution and Hoechst (dilution 1:500) for 30 minutes. Embryos were then serially washed (×2) and placed in 5 ml droplets of PBS with 0.5% serum albumin in uncoated glass bottom dishes (Mattek) covered with embryo culture oil for imaging. […]\nEmbryos were imaged with confocal microscopy using a Zeiss LSM (LSM 710) at a magnification of 63× and the Zeiss Zen software. […] Cell numbers and staining foci numbers were counted manually. […]"}, "[5]": {"settings": "mice, aphidicolin incubation in G2 phase"}},
  "note": "Entries after “also recorded” stand apart in the source; their conditions may differ.",
  "data": [
    {"smiles": "C[C@@]1(CO)[C@H](O)CC[C@@]2(C)[C@H]1CC[C@H]1C[C@@H]3C[C@@]12CC[C@]3(O)CO", "note": "[aphidicolin]", "values": [
      {"measurement": "mitotic entry", "setting": "[1]", "result": "inhibited"},
      {"measurement": "mitotic entry", "setting": "[2]; incubation at 14 h", "result": "prevented mitotic entry"},
      {"measurement": "mitotic entry", "setting": "[2]; incubation at 15.5 h, compared with controls", "result": "allowed mitotic entry with a delay"},
      {"measurement": "mitotic entry timing", "setting": "[2]; human, incubation at 18 h", "result": "no effects; also recorded: did not delay"},
      {"measurement": "markers of DNA damage (γH2AX, Rpa32, Rpa32 phosphoS33)", "setting": "[3]; 4-8 cell stage, 48 h post activation", "result": "increased"},
      {"measurement": "time to formation of phospho-RPA32, γH2AX and Rad51 foci after fork stalling", "setting": "[3]; G2 arrested zygotes", "result": "2 to 4", "unit": "h"},
      {"measurement": "time to resolution of foci after release from the compound", "setting": "[3]; G2 arrested zygotes", "result": "1 to 2", "unit": "h"},
      {"measurement": "RPA32-positive foci per haploid nucleus, average", "setting": "[3]; mice, aphidicolin incubation", "result": 4.5, "unit": "per haploid nucleus"},
      {"measurement": "γH2AX foci positive for RPA32", "setting": "[3]; mice, aphidicolin incubation", "result": "Approximately 10%"},
      {"measurement": "mean γH2AX foci", "setting": "[3]; [5]", "result": 43},
      {"measurement": "γH2AX foci, range", "setting": "[3]; [5]", "result": "0-228"},
      {"measurement": "formation of multinucleate cells", "setting": "[4]; 6 parthenogenetically activated embryos, aphidicolin and G2 checkpoint kinase inhibitor at 15.5 h", "result": "uniformly resulting in the formation of multinucleate cells"},
      {"measurement": "failure to polarize chromosomes in the nucleus", "setting": "[4]; aphidicolin-treated human parthenotes", "result": "16/17"}
    ]}
  ]
}
